Assays:
[1] = target: T1, Organic anion transporter 3 (Homo sapiens, UniProt Q8TCC7); test: TP_TRANSPORTER: inhibition of ES uptake (ES: 50nM) in hOAT3-expressing S2 cells; assay type: functional, cell-based
T1 sequence (Q8TCC7 whole entry): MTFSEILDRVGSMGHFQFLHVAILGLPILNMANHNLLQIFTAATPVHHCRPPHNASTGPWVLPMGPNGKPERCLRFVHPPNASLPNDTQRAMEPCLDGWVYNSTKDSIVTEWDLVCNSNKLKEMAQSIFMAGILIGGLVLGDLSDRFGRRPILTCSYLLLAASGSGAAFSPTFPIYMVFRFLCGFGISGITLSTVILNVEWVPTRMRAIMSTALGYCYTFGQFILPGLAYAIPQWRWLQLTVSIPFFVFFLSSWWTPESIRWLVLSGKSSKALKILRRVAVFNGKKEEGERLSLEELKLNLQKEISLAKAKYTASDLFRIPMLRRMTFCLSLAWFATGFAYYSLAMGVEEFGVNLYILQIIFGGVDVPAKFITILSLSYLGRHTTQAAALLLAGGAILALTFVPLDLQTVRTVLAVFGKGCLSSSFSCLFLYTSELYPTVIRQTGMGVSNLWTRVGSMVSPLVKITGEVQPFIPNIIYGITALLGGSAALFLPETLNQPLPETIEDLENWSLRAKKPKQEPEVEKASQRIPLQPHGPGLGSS

[2] = target: T2, Solute carrier family 22 member 11 (Homo sapiens, UniProt Q9NSA0); test: TP_TRANSPORTER: inhibition of ES uptake (ES: 50nM) in hOAT4-expressing S2 cells; assay type: functional, cell-based
T2 sequence (Q9NSA0 whole entry): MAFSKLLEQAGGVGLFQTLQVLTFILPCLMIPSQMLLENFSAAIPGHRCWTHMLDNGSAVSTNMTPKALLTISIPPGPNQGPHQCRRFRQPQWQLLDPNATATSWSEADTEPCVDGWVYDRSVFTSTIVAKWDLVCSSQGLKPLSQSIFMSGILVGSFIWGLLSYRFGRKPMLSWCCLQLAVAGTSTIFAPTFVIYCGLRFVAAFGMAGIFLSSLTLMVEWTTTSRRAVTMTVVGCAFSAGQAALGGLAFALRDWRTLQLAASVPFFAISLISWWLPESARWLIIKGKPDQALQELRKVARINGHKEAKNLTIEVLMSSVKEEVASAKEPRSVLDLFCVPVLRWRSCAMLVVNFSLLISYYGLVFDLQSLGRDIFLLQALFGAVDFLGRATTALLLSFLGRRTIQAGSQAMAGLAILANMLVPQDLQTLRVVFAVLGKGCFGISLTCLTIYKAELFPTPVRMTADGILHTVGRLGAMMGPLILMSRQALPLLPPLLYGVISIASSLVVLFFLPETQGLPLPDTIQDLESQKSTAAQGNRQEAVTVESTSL

[3] = target: T3, Organic anion transporter 3 (Rattus norvegicus, UniProt Q9R1U7); test: TP_TRANSPORTER: inhibition of ES uptake (ES: 50nM) in rOAT3-expressing S2 cells; assay type: functional, cell-based
T3 sequence (Q9R1U7 whole entry): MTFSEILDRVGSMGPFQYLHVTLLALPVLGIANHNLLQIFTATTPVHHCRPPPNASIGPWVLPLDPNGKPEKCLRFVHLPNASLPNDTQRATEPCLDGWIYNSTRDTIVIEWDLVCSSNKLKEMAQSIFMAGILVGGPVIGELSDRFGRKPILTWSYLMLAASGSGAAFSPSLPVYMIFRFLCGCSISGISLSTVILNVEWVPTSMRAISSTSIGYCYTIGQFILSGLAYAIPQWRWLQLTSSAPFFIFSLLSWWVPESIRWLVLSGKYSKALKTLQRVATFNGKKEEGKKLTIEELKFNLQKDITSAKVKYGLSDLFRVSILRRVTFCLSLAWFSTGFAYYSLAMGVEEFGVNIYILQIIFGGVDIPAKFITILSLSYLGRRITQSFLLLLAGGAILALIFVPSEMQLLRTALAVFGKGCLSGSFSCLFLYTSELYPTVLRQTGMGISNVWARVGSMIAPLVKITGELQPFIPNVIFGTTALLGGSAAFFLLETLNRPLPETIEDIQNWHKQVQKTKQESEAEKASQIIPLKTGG

[4] = target: T4, Solute carrier family 22 member 7 (Rattus norvegicus, UniProt Q5RLM2); test: TP_TRANSPORTER: inhibition of PGF2alpha uptake (PGF2: 50nM) in rOAT2-expressing S2 cells; assay type: functional, cell-based
T4 sequence (Q5RLM2 whole entry): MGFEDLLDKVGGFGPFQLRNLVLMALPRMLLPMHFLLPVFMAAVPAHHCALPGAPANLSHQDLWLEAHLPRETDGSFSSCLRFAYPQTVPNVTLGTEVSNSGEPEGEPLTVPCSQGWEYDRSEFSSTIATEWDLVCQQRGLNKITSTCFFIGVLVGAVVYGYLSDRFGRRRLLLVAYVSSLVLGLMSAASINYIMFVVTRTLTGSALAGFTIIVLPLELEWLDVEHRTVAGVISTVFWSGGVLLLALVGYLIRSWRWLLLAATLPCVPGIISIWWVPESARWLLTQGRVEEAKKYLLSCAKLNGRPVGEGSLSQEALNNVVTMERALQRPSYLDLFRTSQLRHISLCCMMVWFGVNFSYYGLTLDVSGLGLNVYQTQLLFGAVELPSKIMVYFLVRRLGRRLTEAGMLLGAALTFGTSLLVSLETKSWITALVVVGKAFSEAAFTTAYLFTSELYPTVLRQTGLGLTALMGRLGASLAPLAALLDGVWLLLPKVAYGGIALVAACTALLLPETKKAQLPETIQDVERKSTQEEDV

[5] = target: T5, Solute carrier family 22 member 7 (Homo sapiens, UniProt Q9Y694); test: TP_TRANSPORTER: inhibition of PGF2alpha uptake (PGF2: 50nM) in hOAT2-expressing S2 cells; assay type: functional, cell-based
T5 sequence (Q9Y694 whole entry): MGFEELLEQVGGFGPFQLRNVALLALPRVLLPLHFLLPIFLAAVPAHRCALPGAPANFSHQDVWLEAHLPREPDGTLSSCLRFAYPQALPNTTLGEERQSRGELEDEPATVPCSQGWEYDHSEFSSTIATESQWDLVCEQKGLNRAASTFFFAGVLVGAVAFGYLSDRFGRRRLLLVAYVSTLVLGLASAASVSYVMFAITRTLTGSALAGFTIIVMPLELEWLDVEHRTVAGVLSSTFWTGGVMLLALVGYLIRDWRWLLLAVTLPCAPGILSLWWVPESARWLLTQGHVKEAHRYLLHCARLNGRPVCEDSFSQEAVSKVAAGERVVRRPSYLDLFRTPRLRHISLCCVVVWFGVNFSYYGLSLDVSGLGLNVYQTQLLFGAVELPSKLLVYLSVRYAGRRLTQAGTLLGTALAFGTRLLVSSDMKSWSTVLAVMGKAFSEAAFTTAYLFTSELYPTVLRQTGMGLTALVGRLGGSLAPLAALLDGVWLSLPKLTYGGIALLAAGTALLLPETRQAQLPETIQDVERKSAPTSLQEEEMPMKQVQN

[6] = target: T6, Solute carrier family 22 member 6 (Rattus norvegicus, UniProt O35956)
T6 sequence (O35956 whole entry): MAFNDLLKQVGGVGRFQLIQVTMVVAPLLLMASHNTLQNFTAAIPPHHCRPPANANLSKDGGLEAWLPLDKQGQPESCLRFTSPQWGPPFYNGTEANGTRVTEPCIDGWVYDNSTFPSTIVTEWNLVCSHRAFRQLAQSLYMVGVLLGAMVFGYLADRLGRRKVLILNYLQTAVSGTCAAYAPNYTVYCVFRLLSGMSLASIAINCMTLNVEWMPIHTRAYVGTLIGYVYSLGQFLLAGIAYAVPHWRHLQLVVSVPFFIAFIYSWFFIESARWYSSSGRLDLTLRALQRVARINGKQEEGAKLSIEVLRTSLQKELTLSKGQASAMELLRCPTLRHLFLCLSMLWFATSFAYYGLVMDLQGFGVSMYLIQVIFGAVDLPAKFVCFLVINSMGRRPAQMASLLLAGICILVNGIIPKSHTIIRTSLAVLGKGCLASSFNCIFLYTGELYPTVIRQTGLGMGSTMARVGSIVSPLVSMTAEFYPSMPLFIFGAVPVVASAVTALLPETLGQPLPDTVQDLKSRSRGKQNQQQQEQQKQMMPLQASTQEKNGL

Row | IC50 [1] [µM] | IC50 [2] [µM] | IC50 [3] [µM] | IC50 [4] [µM] | IC50 [5] [µM] | SMILES | IC50 [6] [µM]
1 | 13.7 | 591 | 15.6 | 449 | 352 | CC[C@H](C)C(=O)O[C@H]1C[C@H](O)C=C2C=C[C@H](C)[C@H](CC[C@@H](O)C[C@@H](O)CC(=O)O)[C@H]21 [PRAVASTATIN] | –
2 | 249 | – | 742 | – | – | CC1(C)C[C@@H]1C(=O)N/C(=C\CCCCSC[C@H](N)C(=O)O)C(=O)O [CILASTATIN] | –

The next lines start with the compound.

Row | SMILES | IC50 [1] [µM] | IC50 [2] [µM] | IC50 [3] [µM] | IC50 [4] [µM] | IC50 [5] [µM] | IC50 [6] [µM]
3 | CN/C(=N/CCSCc1nc[nH]c1C)NC#N [CIMETIDINE] | 92.4 | > 2000 | 166 | – | – | > 2000
4 | CCCN(CCC)S(=O)(=O)c1ccc(C(=O)O)cc1 [PROBENECID] | – | – | 6.03 | 977 | 668 | –
5 | O=C(O)CCNC(=O)c1ccccc1 [BETAMIPRON] | 9.92 | 483 | 47.5 | – | – | –

Reference: ChEMBL document CHEMBL2074482 (J Pharmacol Sci, 2004)
